In patent publication US6156754A, “Glycoconjugates of modified camptothecin derivatives (A-or B-ring linkage)” (Bayer Aktiengesellschaft, priority 1996, dated 2000):
Values after ≈ are worked out from the molar mass of the structure shown. Structures can show the parent of a compound that is named as a salt.

What was measured:
[1] = system: HT 29; assay: Growth inhibition (MTT) test, cytotoxic action on HT 29; assay type: cell-based, human; conditions: HT 29 cell line, growth checked after day 3 and day 6
Experimental: (§1) 1. Growth Inhibition Test for the Determination of the Cytotoxic Properties
(§2) The human large intestine cell lines SW 480 and HT 29 (ATCC No. CCL 228 and HBT 38) and the mouse melanoma cell line B 16 F 10 were grown in Roux dishes in RPMI 1640 medium with addition of 10% FCS. They were then trypsinized and taken up in RPMI plus 10% FCS to a cell count of 50,000 cells/ml. 100 μl of cell suspension/well were added to a 96 microwell plate and incubated for 1 day at 37° C. in a CO2 incubator. A further 100 μl of RPMI Medium and 1 μl of DMSO containing the test substances were then added. The growth was checked after day 3 and day 6. To this end, 40 μl of MTT solution (3-(4,5-dimethylthiazol-2-yl)-2,5-diphenyl-tetrazolium bromide) having a starting concentration of 5 mg/ml of H2 O were added to each microwell. Incubation was carried out for 5 hours in a CO2 incubator at 37° C. The medium was then aspirated and 100 μl of i-propanol/well were added. After shaking for 30 min with 100 μl of H2 O, the extinction was measured at 540 nm using a Titertek Multiscan MCC/340 (Flow).
(§3) The cytotoxic action is indicated in Table 1 as the IC50 value (dose which inhibits the cell growth to 50% of the cell growth of the control) in each case for the SW 480 and HT 29 and B16F10 cell lines: […]

[2] = system: SW 480; assay: Growth inhibition (MTT) test, cytotoxic action on SW 480; assay type: cell-based, human; conditions: SW 480 cell line, growth checked after day 3 and day 6
Experimental: as §1, §2, §3

[3] = system: B16F10; assay: Growth inhibition (MTT) test, cytotoxic action on B16F10; assay type: cell-based, mouse; conditions: B16F10 cell line, growth checked after day 3 and day 6
Experimental: as §1, §2, §3

[4] = In vivo inhibition of tumour growth in the nude mouse model (LXFL 529 xenograft); parameters: species or system human tumour in athymic nude mice (NMRI nu/nu); conditions: mouse, in vivo, ip; nude mice, i.p. day 1, 2, 3; read-out: maximum tolerable dose (MTD)
Experimental: (§4) 3. In Vivo Inhibition of Tumour Growth in the Nude Mouse Model
(§5) For all in vivo experiments for investigation of the inhibition of tumour growth athymic nude mice (NMRI nu/nu strain) were used. The selected large-cell lung carcinoma LXFL 529 was grown by serial passage in nude mice. The human origin of the tumour was confirmed by isoenzymatic and immunohistochemical methods.
(§6) The tumour was implanted subcutaneously into both flanks of 6 to 8 week old nu/nu nude mice. The treatment was started, depending on the doubling time, as soon as the tumours had reached a diameter of 5-7 mm. The mice were assigned to the treatment group and the control group (5 mice per group with 8-10 assessable tumours) by randomization. The individual tumours of the control group all grew progessively.
(§7) The size of the tumours was measured in two dimensions by means of a slide gauge. The tumour volume, which correlated well with the cell count, was then used for all evaluations. The volume was calculated according to the formula "length×breadth×breadth/2" ([a×b^2 ]/2, a and b represent two diameters at right angles).
(§8) The values of the relative tumour volume (RTV) were calculated for each individual tumour by dividing the tumour size on day X with the tumour size on day 0 (at the time of randomization). The mean values of the RTV were then used for the further evaluation.
(§9) The inhibition of the increase of the tumour volume (tumour volume of the test group/control group, T/C, in per cent) was the final measured value.
(§10) The administration of the compounds was carried out intraperitoneally (i.p.) on day 1, 2 and 3 after randomization.

[5] = system: large-cell lung carcinoma LXFL 529; assay: as above; parameters: species or system human tumour in athymic nude mice (NMRI nu/nu); conditions: for Relative body weight on day 7 / Relative tumour volume on day 14 / Survival time: i.p. day 1, 2, 3; for Relative body weight on day 7: control 102; for Relative tumour volume on day 14: control 691; for Survival time: each of five mice
Experimental: as §4, §5, §6, §7, §8, §9, §10

[6] = system: Bone marrow cells; assay: Haematopoietic activity: bone marrow stem cell colony formation; assay type: cell-based, mice
Experimental: 2. Haematopoietic Activity of Glycoconjugates in Comparison with the Underlying Active Compound
Bone marrow cells are washed out of mice femurs. 10^5 cells are incubated at 37° C. and 7% CO2 in McCoy 5A medium (0.3% agar) together with recombinant murine GM-CSF (Genzyme; stem cell colony formation) and the substances (10^-4 to 100 μg/ml). 7 days later, the colonies ([…]) and clusters (17-50 cells) are counted.
As shown in Tab. 2 with reference to Example 2.1, the glycoconjugates investigated show, compared with the underlying active compound, an inhibition of the bone marrow stem cell proliferation which is reduced approximately by the factor 100.

| Compound | IC50 [1] [nM] | IC50 [2] [nM] | IC50 [3] [nM] | also measured |
| --- | --- | --- | --- | --- |
| CCC1(O)C(=O)OCc2c1cc1n(c2=O)Cc2c-1nc1cc3c(cc1c2CN1CCN(C(=O)[C@H](C)NC(=O)[C@H](CCCCNC(=S)Nc2ccc(O[C@H]4O[C@@H](C)[C@@H](O)[C@@H](OC)[C@@H]4O)cc2)NC(=S)Nc2ccc(O[C@H]4O[C@@H](C)[C@@H](O)[C@@H](OC)[C@@H]4O)cc2)CC1)OCCO3 (mixture of isomers) [Example 3.1] | 0.06 | 0.08 | 0.5 | – |
| CCC1(O)C(=O)OCc2c1cc1n(c2=O)Cc2c-1nc1cc3c(cc1c2CN1CCN(C(=O)[C@H](C)NC(=O)[C@H](CCCCN)NC(=S)Nc2ccc(O[C@H]4O[C@@H](C)[C@@H](O)[C@@H](OCC(=O)O)[C@@H]4O)cc2)CC1)OCCO3 (mixture of isomers) [Example 3.3, 10,11-(Ethylenedioxy)-7-{1-[N^α -(O-(3-O-carboxymethyl-β-L-fucopyranosyl)-4-hydroxy-phenylaminothiocarbonyl]-L-lysyl-L-alanyl]-piperazin-4-yl-methyl}-20(R/S)-camptothecin, hydrochloride] | 0.1 | 0.25 | – | – |
| CC[C@@]1(O)C(=O)OCc2c1cc1n(c2=O)Cc2c-1nc1ccccc1c2COC(=O)[C@H](C)NC(=O)[C@H](CCCCNC(=S)Nc1ccc(O[C@H]2O[C@@H](C)[C@@H](O)[C@@H](OC)[C@@H]2O)cc1)NC(=S)Nc1ccc(O[C@H]2O[C@@H](C)[C@@H](O)[C@@H](OC)[C@@H]2O)cc1 [Example 1.1, 7-{N^α,N^ε -bis-[O-(3-O-Methyl-β-L-fucopyranosyl)-4-hydroxy-phenylaminothiocarbonyl]-L-lysyl-L-alanyloxymethyl}-camptothecin] | 0.025 | 0.015 | 0.18 | MTD [4]: 12.5 mg/kg/day; Relative body weight on day 7 ([5]; 3.125 mg/kg/day): 93 % of day 0; Relative tumour volume on day 14 ([5]; 3.125 mg/kg/day): 0.1 % of day 0; Survival time ([5]; 3.125 mg/kg/day): > 21 days; Relative body weight on day 7 ([5]; 6.25 mg/kg/day): 93 % of day 0; Relative tumour volume on day 14 ([5]; 6.25 mg/kg/day): 0.1 % of day 0; Survival time ([5]; 6.25 mg/kg/day): > 21 days; Relative body weight on day 7 ([5]; 12.5 mg/kg/day (MTD)): 72 % of day 0; Relative tumour volume on day 14 ([5]; 12.5 mg/kg/day (MTD)): 0.1 % of day 0; Survival time ([5]; 12.5 mg/kg/day (MTD)): > 21 days; therapeutic efficacy (remission of the tumour) ([5]; at MTD, 1/2 MTD and 1/4 MTD): complete remission of the tumour |
| CC[C@@]1(O)C(=O)OCc2c1cc1n(c2=O)Cc2c-1nc1ccccc1c2COC(=O)[C@@H](NC(=O)[C@H](CCCCN)NC(=S)Nc1ccc(O[C@H]2O[C@@H](C)[C@@H](O)[C@@H](OCC(=O)O)[C@@H]2O)cc1)C(C)C [Example 1.3, 7-{N^α -[O-(3-O-Carboxymethyl-β-L-fucopyranosyl)-4-hydroxy-phenylamino-thiocarbonyl]-L-lysyl-L-valyloxymethyl}-camptothecin, hydrochloride] | 0.03 | 0.04 | – | – |
| CC[C@@]1(O)C(=O)OCc2c1cc1n(c2=O)Cc2c-1nc1ccccc1c2COC(=O)[C@@H](NC(=O)[C@H](CCCCN)NC(=S)Nc1ccc(O[C@H]2O[C@@H](C)[C@@H](O)[C@@H](OC)[C@@H]2O)cc1)C(C)C [Example 1.4, 7-{N^α -[O-(3-O-Methyl-β-L-fucopyranosyl)-4-hydroxy-phenylamino-thiocarbonyl)-L-lysyl-L-valyoxymethyl}-camptothecin, Hydrochloride] | 0.04 | 0.03 | 0.2 | – |
| CC[C@@]1(O)C(=O)OCc2c1cc1n(c2=O)Cc2cc3c(NC(=O)[C@H](C)NC(=O)[C@H](CCCCNC(=S)Nc4ccc(O[C@H]5O[C@@H](C)[C@@H](O)[C@@H](OC)[C@@H]5O)cc4)NC(=S)Nc4ccc(O[C@H]5O[C@@H](C)[C@@H](O)[C@@H](OC)[C@@H]5O)cc4)cccc3nc2-1 [Example 2.1, 9-{N^α,N^ε -bis-[O-(3-O-Methyl-β-L-fucopyranosyl)-4-hydroxy-phenylamino-thiocarbonyl]-L-lysyl-L-alanyl-amino}-camptothecin] | 0.06 | 0.2 | 2 | reduction of inhibition of bone marrow stem cell proliferation compared with the underlying active compound (factor) ([6]; glycoconjugate vs underlying active compound (2.1.a)): ~100; IC50 (inhibition of bone marrow stem cell proliferation) ([6]; mouse bone marrow cells with GM-CSF, 7 days): 170 ng/mL |
| CC[C@@]1(O)C(=O)OCc2c1cc1n(c2=O)Cc2cc3c(N)cccc3nc2-1 [Example 2.1.a, 9-Amino-camptothecin, reference compound] | – | – | – | IC50 ([6]; Bone marrow cell, 168 h, mouse bone marrow cells with GM-CSF, 7 days, read-out: IC50 (inhibition of bone marrow stem cell proliferation)): 1.6 ng/mL (≈ 4.4 nM) |
